Tests used:
Assay type in all cases: binding
HLA B*5802 = HLA B*5802 (Homo sapiens, UniProt P01889, A329T/C349S/D201E/D98Y/E176V/E187L/E204Q/E69T/G107R/I218V/I90N/K202T/L105A/N104I/N87E/Q89R/Q94S/R106L/R155S/R180L/R86G/S101N/S121W/S35A/S48A/V127L/V306I/V36M/Y140S/Y91M)
HLA B*3501 = HLA B*3501 (Homo sapiens, UniProt P01889, A329T/A93T/A95T/C349S/D201E/D98Y/E176V/E187L/E204Q/E69T/I218V/K202T/L119I/Q94N/R155S/R180L/S121R/S35A/S48A/T118I/V127L/V306I/V36M/Y140S/Y91F)
H-2 K^d = H-2 K^d (Mus musculus, UniProt P01902)
Sequence of H-2 K^d (P01887 21-119): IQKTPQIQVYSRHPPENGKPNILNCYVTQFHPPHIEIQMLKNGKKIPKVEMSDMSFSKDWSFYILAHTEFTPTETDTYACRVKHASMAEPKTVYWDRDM
Sequence of H-2 K^d (P01902 22-368): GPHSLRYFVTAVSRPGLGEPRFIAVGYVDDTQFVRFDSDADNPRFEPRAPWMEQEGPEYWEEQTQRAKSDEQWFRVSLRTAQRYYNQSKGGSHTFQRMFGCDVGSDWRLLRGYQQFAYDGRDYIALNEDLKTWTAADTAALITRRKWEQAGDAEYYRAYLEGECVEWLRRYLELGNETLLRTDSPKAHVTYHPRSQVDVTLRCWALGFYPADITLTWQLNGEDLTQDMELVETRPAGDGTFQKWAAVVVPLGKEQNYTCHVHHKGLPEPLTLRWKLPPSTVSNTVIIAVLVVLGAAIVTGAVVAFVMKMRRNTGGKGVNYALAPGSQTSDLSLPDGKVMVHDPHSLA

HLA B*5401 = HLA B*5401 (Homo sapiens, UniProt P01889, A329T/C349S/D138N/D201E/E176V/E187T/E204Q/E69G/I76V/K202T/L119W/R155S/R180L/S121T/S35A/S48A/V127L/V306I/V36M/Y140L)
HLA B*5801 = HLA B*5801 (Homo sapiens, UniProt P01889, A329T/C349S/D201E/D98Y/E176V/E187L/E204Q/E69T/G107R/I218V/I90N/K202T/L105A/L119I/N104I/N87E/Q89R/Q94S/R106L/R155S/R180L/R86G/S101N/S121R/S35A/S48A/T118I/V127L/V306I/V36M/Y140S/Y91M)
HLA A*6802 = HLA A*6802 (Homo sapiens, UniProt P04439, A269V/D140Y/D185E/E176V/E277Q/E87N/F33Y/G231S/I121R/I166T/I218V/L180W/L300P/L318F/N151K/P208A/P217A/Q86R/R138H/R169H/S129P/T345S/V36M)
H-2 D^b = H-2 D^b (Mus musculus, UniProt P01899)
Sequence of H-2 D^b (P01887 21-119): as the sequence (P01887 21-119) above
Sequence of H-2 D^b (P01899 25-362): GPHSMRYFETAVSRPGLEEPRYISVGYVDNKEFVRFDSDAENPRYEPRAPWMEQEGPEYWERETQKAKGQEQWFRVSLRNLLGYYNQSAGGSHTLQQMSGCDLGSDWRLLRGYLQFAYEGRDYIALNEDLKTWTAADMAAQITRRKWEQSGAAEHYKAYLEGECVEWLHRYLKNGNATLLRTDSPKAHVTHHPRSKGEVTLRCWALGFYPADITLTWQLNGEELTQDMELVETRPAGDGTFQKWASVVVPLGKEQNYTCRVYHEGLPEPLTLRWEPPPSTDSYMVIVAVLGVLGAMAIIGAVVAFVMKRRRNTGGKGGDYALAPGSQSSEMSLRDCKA

H-2 D^d = H-2 D^d (Mus musculus, UniProt P01900)
Sequence of H-2 D^d (P01900 whole entry, looked up): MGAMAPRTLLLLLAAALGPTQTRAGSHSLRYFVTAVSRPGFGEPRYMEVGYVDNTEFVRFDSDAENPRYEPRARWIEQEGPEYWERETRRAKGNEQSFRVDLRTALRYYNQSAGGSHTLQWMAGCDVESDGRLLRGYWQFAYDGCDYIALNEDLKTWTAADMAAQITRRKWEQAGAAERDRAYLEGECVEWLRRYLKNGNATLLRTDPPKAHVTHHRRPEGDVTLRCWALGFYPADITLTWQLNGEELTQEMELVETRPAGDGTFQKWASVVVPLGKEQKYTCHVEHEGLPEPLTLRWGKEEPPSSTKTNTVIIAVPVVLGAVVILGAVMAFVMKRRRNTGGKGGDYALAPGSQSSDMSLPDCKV

HLA B*0801 = HLA B*0801 (Homo sapiens, UniProt P01889, A93T/A95T/D138N/E176V/E187T/K202T/Q94N/R180D/S35A/V36M/Y33D/Y91F); assay: biochemical
HLA A*3001 = HLA A*3001 (Homo sapiens, UniProt P04439, D140H/D185E/E176W/F33S/G80R/H175R/K168Q/R138E/R41S); assay: biochemical
HLA A*3201 = HLA A*3201 (Homo sapiens, UniProt P04439, A270S/D101S/D185E/E176V/E277Q/F133L/G103R/G107R/G231S/H175R/I121M/I218V/I322F/K168Q/L105A/L300P/L318F/M331R/P208A/P217A/Q94H/R106L/R138Q/S129P/T104I/T323A/T345S/V100E/V321M/V358M); assay: biochemical
HLA B*5101 = HLA B*5101 (Homo sapiens, UniProt P01889, A329T/A93T/A95T/C349S/D138N/D201E/D98Y/E187L/E204Q/E69T/G107R/I218V/K202T/L105A/L119W/N104I/Q94N/R106L/R155S/R180L/S101N/S121T/S35A/S48A/V306I/V36M/Y195H/Y91F)
HLA B*1501 = HLA B*1501 (Homo sapiens, UniProt P01889, A329T/A93T/A95T/C349S/D201E/D98Y/E187L/E204Q/E69M/E70A/K202T/N87E/Q94N/R155S/R180W/S121R/S35A/S48A/V306I/V36M/Y140S/Y91S); assay: biochemical
HLA B*1503 = HLA B*1503 (Homo sapiens, UniProt P01889, A329T/A93T/A95T/C349S/D201E/D98Y/E187L/E204Q/K202T/N87E/Q94N/R155S/R180L/S121R/S35A/V306I/V36M/Y140S/Y91S); assay: biochemical
H-2 K^k = H-2 K^k (Mus musculus, UniProt P04223)
Sequence of H-2 K^k (P01887 21-119): as the sequence (P01887 21-119) above
Sequence of H-2 K^k (P04223 22-369): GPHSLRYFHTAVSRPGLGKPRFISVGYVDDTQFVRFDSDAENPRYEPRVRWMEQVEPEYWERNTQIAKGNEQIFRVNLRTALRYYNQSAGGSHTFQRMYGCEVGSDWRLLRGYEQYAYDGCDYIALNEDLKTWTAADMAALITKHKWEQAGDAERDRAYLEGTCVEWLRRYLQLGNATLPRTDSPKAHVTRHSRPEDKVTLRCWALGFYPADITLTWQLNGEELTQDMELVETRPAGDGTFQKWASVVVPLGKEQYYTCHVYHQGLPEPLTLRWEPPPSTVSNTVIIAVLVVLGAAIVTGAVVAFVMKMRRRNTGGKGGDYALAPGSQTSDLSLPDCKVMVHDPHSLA

HLA B*5301 = HLA B*5301 (Homo sapiens, UniProt P01889, A329T/A93T/A95T/C349S/D201E/D98Y/E176V/E187L/E204Q/E69T/G107R/I218V/K202T/L105A/L119I/N104I/Q94N/R106L/R155S/R180L/S101N/S121R/S35A/S48A/T118I/V127L/V306I/V36M/Y140S/Y91F)

| Sequence | Normalized average relative binding affinity(ARB) (HLA B*5802) | Normalized average relative binding affinity(ARB) (HLA B*3501) | Normalized average relative binding affinity(ARB) (H-2 K^d) | Normalized average relative binding affinity(ARB) (HLA B*5401) | Normalized average relative binding affinity(ARB) (HLA B*5801) | Normalized average relative binding affinity(ARB) (HLA A*6802) | Normalized average relative binding affinity(ARB) (H-2 D^b) | Normalized average relative binding affinity(ARB) (H-2 D^d) | Normalized average relative binding affinity(ARB) (HLA B*0801) | Normalized average relative binding affinity(ARB) (HLA A*3001) | Normalized average relative binding affinity(ARB) (HLA A*3201) | Normalized average relative binding affinity(ARB) (HLA B*5101) | Normalized average relative binding affinity(ARB) (HLA B*1501) | Normalized average relative binding affinity(ARB) (HLA B*1503) | Normalized average relative binding affinity(ARB) (H-2 K^k) | Normalized average relative binding affinity(ARB) (HLA B*5301) |
| --- | --- | --- | --- | --- | --- | --- | --- | --- | --- | --- | --- | --- | --- | --- | --- | --- |
| XXXXXXXWX [3064.0159] | 0.16 | 0.047 | 0.26 | 0.051 | 0.84 | 0.16 | 0.13 | 0.27 | 0.11 | 0.16 | 0.089 | 0.20 | 0.035 | 0.13 | 0.18 | 0.099 |
| XXXXQXXXX [3064.0094] | 0.063 | 0.28 | 0.15 | 0.40 | 0.19 | 0.077 | 0.023 | 0.15 | 0.037 | 0.20 | 0.38 | 0.29 | 1.0 | 0.20 | 0.099 | 0.12 |
| XXXWXXXXX [3064.0079] | 0.72 | 0.32 | 0.040 | 1.0 | 0.33 | 0.56 | 0.56 | 0.54 | 0.68 | 0.45 | 0.29 | 0.82 | 0.39 | 0.63 | 1.0 | 1.0 |
| XXXXIXXXX [3064.0088] | 0.79 | 0.26 | 0.19 | 0.13 | 0.34 | 0.88 | 0.020 | 0.28 | 0.080 | 0.20 | 0.59 | 0.33 | 0.32 | 0.12 | 0.24 | 0.30 |
| XXXXXXWXX [3064.0139] | 0.18 | 1.0 | 0.056 | 0.22 | 0.79 | 1.0 | 0.31 | 0.044 | 0.53 | 0.16 | 0.48 | 0.91 | 0.31 | 0.15 | 0.064 | 0.31 |
| XXXXXXFXX [3064.0125] | 0.084 | 0.32 | 0.088 | 0.17 | 0.018 | 0.46 | 0.72 | 1.0 | 0.40 | 0.18 | 0.44 | 0.43 | 0.34 | 0.077 | 1.0 | 0.10 |
| XXXXXXHXX [3064.0127] | 0.089 | 0.15 | 0.33 | 0.27 | 0.18 | 0.49 | 0.062 | 0.075 | 1.0 | 0.082 | 0.33 | 0.27 | 0.33 | 0.18 | 0.26 | 0.070 |
| XXXXXXRXX [3064.0135] | 0.21 | 0.16 | 0.11 | 0.13 | 0.075 | 0.11 | 0.15 | 0.013 | 0.50 | 0.085 | 0.10 | 0.57 | 0.22 | 0.21 | 0.21 | 0.25 |

Source: PMC2248166, “Quantitative peptide binding motifs for 19 human and mouse MHC class I molecules derived using positional scanning combinatorial peptide libraries” (Immunome Research, 2008)
